Here are results for four compounds from article PMC4627794, “Non-Selective Cannabinoid Receptor Antagonists, Hinokiresinols Reduce Infiltration of Microglia/Macrophages into Ischemic Brain Lesions in Rat via Modulating 2-Arachidonolyglycerol-Induced Migration and Mitochondrial Activity” (PLoS ONE, 2015).

Experiment [1] has as its target T1, hCB2R (human CB2R) (Homo sapiens, UniProt P34972).
T1 construct: gene CNR2; full-length receptor stably expressed in CHO cells
Kind of experiment: competition radioligand binding, [3H]CP-55, […].

Experiment [2] addresses T1, hCB2R (human CB2R). Kind of experiment: forskolin-stimulated cAMP accumulation, antagonism. The format is cell-based. From the text: forskolin-stimulated cAMP accumulation, antagonism on hCB2R (human CB2R) | antagonism for CB1R and CB2R with IC50 values in micromolar ranges
In general terms: cAMP levels reflect the balance of adenylyl cyclase and phosphodiesterase activity.

Experiment [3] deals with T2, CB1R (U2 OS cells, reporter gene assay) (Homo sapiens, UniProt P21554).
T2 construct: gene CNR1; receptor stably expressed in U2 OS cells
Put plainly: SRE-luciferase reporter gene assay, antagonism. The format is cell-based. An excerpt:
SRE-luciferase reporter gene assay, antagonism on CB1R (U2 OS cells, reporter gene assay) | antagonism for CB1R and CB2R with IC50 values in micromolar ranges

Experiment [4] addresses T2, CB1R (U2 OS cells, reporter gene assay). Kind of experiment: SRE-luciferase reporter gene assay, agonism. The format is cell-based. To be noted: agonist mode.

T2 sequence (P21554 whole entry): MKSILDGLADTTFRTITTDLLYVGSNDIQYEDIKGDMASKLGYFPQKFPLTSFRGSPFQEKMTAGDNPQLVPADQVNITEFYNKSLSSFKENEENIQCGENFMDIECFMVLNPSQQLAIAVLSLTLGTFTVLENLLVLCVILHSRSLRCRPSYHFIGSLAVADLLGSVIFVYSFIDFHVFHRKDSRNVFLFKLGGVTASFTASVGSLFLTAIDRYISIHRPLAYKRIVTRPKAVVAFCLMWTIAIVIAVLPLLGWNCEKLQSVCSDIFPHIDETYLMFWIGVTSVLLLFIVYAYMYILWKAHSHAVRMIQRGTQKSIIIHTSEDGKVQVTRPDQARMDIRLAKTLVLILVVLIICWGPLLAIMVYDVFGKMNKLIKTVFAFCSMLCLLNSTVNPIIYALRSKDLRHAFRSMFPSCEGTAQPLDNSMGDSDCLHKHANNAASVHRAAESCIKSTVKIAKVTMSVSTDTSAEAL
T1 sequence (P34972 whole entry): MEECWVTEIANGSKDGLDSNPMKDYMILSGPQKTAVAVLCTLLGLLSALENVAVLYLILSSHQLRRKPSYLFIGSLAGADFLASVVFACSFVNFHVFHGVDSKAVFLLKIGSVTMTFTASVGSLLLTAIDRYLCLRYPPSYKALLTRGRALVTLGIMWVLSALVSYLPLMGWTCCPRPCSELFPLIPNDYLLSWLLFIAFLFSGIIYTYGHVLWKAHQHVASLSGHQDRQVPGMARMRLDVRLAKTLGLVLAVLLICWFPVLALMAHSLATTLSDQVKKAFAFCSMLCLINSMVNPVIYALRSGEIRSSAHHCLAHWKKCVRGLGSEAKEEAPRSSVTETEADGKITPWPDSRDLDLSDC

One may read the Ki as the dissociation constant of the complex between target and ligand, obtained from inhibition or displacement. Lower therefore signals higher affinity. In turn, `CN1CCCCC1Cn1cc(C(=O)c2cc([N+](=O)[O-])ccc2I)c2ccccc21` (centres unmarked) [AM-1241, reference compound] came in with a Ki on hCB2R (human CB2R) [1] of 0.0066 µM.

The term IC50 denotes the concentration at which inhibition is half-maximal. Lower therefore signals inhibition by little substance. For the compound `C=C[C@@H](/C=C\c1ccc(O)cc1)c1ccc(O)cc1` [cis-hinokiresinol], the affinity at hCB2R (human CB2R) [1], expressed as Ki, was 12.2 µM. In addition, the IC50 against hCB2R (human CB2R) [2] amounted to 72.5 µM; in experiment [3], 11.2 µM.

As a reminder, the EC50 is the concentration needed to bring the measured effect to its halfway point. Read a low EC50 as greater potency. `CCCCCCC(C)(C)c1cc(O)c2c(c1)OC(C)(C)[C@@H]1CC=C(CO)C[C@@H]21` [Hu-210] yielded an EC50 in experiment [4] of 0.000199 µM.

`C=C[C@@H](/C=C/c1ccc(O)cc1)c1ccc(O)cc1` [trans-hinokiresinol]: the affinity on hCB2R (human CB2R) [1] corresponds to a Ki of 9.5 µM. Further, the IC50 on hCB2R (human CB2R) [2] was 20.5 µM; in experiment [3] it was 10.2 µM.
